Results: patent publication US12077503B2, “Substituted cyclic amides and their use as herbicides” (FMC CORPORATION, priority 2015, dated 2024)

Legend:
Format in all cases: in vivo
rice (Oryra sativa) = assay: Test B flooded paddy test; details: Oryza sativa, 250 g ai/ha, Flood; 0 to 100 scale where 0 is no effect and 100 is complete control; read-out: Rice plant response rating
Procedure, shortened: (§1)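 Rating scale 0–100 (visual, vs untreated controls) after a 13–15 d greenhouse period; application to the flood layer, 3 cm above soil and maintained; plants at 2-leaf stage when treated.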

[1] = tested on: barnyardgrass (Echinochloa crus-galli); assay: Test B flooded paddy test; details: Echinochloa crus-galli, 250 g ai/ha, Flood; 0 to 100 scale where 0 is no effect and 100 is complete control; read-out: Barnyardgrass plant response rating
Procedure, shortened: as §1

[2] = tested on: sedge, umbrella (small-flower umbrella sedge, Cyperus difformis); assay: Test B flooded paddy test; details: Cyperus difformis, 250 g ai/ha, Flood; 0 to 100 scale where 0 is no effect and 100 is complete control; read-out: Sedge, Umbrella plant response rating
Procedure, shortened: as §1

[3] = tested on: ducksalad (Heteranthera limosa); assay: Test B flooded paddy test; details: Heteranthera limosa, 250 g ai/ha, Flood; 0 to 100 scale where 0 is no effect and 100 is complete control; read-out: Ducksalad plant response rating
Procedure, shortened: as §1

corn (Zea mays) = assay: Test A postemergence; details: Zea mays, post-emergence, 240 h, Postemergence
Procedure, shortened: (§2)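 Treatment is preemergence as a directed soil spray after planting, or postemergence at the one- to two-leaf stage, with test chemical in a non-phytotoxic solvent mixture plus surfactant. Plants stay in the greenhouse about 10 d before visual injury scoring on a 0 to 100 scale versus untreated controls.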

[4] = tested on: giant foxtail (Setaria faberii); assay: Test A postemergence; details: Setaria faberi, post-emergence, 240 h, Postemergence, read-out: Plant response rating, Foxtail, Giant
Procedure, shortened: as §2

[5] = tested on: ryegrass, Italian (Italian ryegrass, Lolium multiflorum); assay: Test A postemergence; details: Lolium multiflorum, post-emergence, 240 h, Postemergence, read-out: Plant response rating, Ryegrass, Italian
Procedure, shortened: as §2

[6] = tested on: Galium (catchweed bedstraw, Galium aparine); assay: Test A postemergence; details: Galium, post-emergence, 240 h, Postemergence, read-out: Plant response rating, Galium
Procedure, shortened: as §2

[7] = tested on: pigweed (Amaranthus retroflexus); assay: Test A postemergence; details: Amaranthus retroflexus, post-emergence, 240 h, Postemergence, read-out: Plant response rating, Pigweed
Procedure, shortened: as §2

[8] = tested on: barnyardgrass (Echinochloa crus-galli); assay: Test A postemergence; details: Echinochloa crus-galli, post-emergence, 240 h, Postemergence, read-out: Plant response rating, Barnyardgrass
Procedure, shortened: as §2

[9] = tested on: wheat (Triticum aestivum); assay: Test A postemergence; details: Triticum aestivum, post-emergence, 240 h, Postemergence, read-out: Plant response rating, Wheat
Procedure, shortened: as §2

Kochia (Kochia scoparia) [10] = assay: Test A postemergence; details: Bassia scoparia, post-emergence, 240 h, Postemergence, read-out: Plant response rating, Kochia
Procedure, shortened: as §2

[11] = tested on: blackgrass (Alopecurus myosuroides); assay: Test A postemergence; details: Alopecurus myosuroides, post-emergence, 240 h, Postemergence, read-out: Plant response rating, Blackgrass
Procedure, shortened: as §2

[12] = tested on: ragweed (common ragweed, Ambrosia elatior); assay: Test A postemergence; details: Ambrosia artemisiifolia, post-emergence, 240 h, Postemergence, read-out: Plant response rating, Ragweed
Procedure, shortened: as §2

[13] = tested on: giant foxtail (Setaria faberii); assay: Test A preemergence; details: Setaria faberi, pre-emergence, 240 h, Preemergence
Procedure, shortened: as §2

[14] = tested on: ryegrass, Italian (Italian ryegrass, Lolium multiflorum); assay: Test A preemergence; details: Lolium multiflorum, pre-emergence, 240 h, Preemergence
Procedure, shortened: as §2

[15] = tested on: pigweed (Amaranthus retroflexus); assay: Test A preemergence; details: Amaranthus retroflexus, pre-emergence, 240 h, Preemergence
[16] = tested on: barnyardgrass (Echinochloa crus-galli); assay: Test A preemergence; details: Echinochloa crus-galli, pre-emergence, 240 h, Preemergence
Procedure, shortened: as §2

Kochia (Kochia scoparia) [17] = assay: Test A preemergence; details: Bassia scoparia, pre-emergence, 240 h, Preemergence
Procedure, shortened: as §2

[18] = tested on: ragweed (common ragweed, Ambrosia elatior); assay: Test A preemergence; details: Ambrosia artemisiifolia, pre-emergence, 240 h, Preemergence
Procedure, shortened: as §2

[19] = 125 g ai/ha, visual injury after approximately 10 d, 0 to 100 scale where 0 is no effect and 100 is complete control
[20] = 31 g ai/ha, visual injury after approx. 10 d, 0 to 100 scale, 0 no effect, 100 complete control

CC(C)=CC1CNC(=O)C1C(=O)Nc1ccccc1F (stereo not drawn) [Compound 1011]
0%: pest or weed control at 250 g/ha (rice (Oryra sativa)) | pest or weed control at 250 g/ha [1] | pest or weed control at 250 g/ha [2] | pest or weed control at 250 g/ha [3] | Corn plant response rating (crop injury, 0 = no effect, 100 = complete kill) at 125 g/ha (corn (Zea mays); [19]) | Corn plant response rating (crop injury, 0 = no effect, 100 = complete kill) at 31 g/ha (corn (Zea mays); [20]) | pest or weed control at 125 g/ha [4, 19] | pest or weed control at 31 g/ha [4, 20] | pest or weed control at 125 g/ha [5, 19] | pest or weed control at 31 g/ha [5, 20] | pest or weed control at 125 g/ha [6, 19] | pest or weed control at 31 g/ha [6, 20] | pest or weed control at 125 g/ha [7, 19] | pest or weed control at 31 g/ha [7, 20] | pest or weed control at 125 g/ha [8, 19] | pest or weed control at 31 g/ha [8, 20] | plant injury at 125 g/ha [9, 19] | plant injury at 31 g/ha [9, 20] | pest or weed control at 125 g/ha (Kochia (Kochia scoparia) [10]; [19]) | pest or weed control at 31 g/ha (Kochia (Kochia scoparia) [10]; [20]) | pest or weed control at 125 g/ha [11, 19] | pest or weed control at 31 g/ha [11, 20] | pest or weed control at 125 g/ha [12, 19] | pest or weed control at 31 g/ha [12, 20] | pest or weed control at 125 g/ha ([13]; 125 g ai/ha, visual injury rating after approximately 10 d, read-out: Foxtail, Giant plant response rating (0 to 100 scale, 0 is no effect, 100 is complete control)) | pest or weed control at 31 g/ha ([13]; 31 g ai/ha, 0 to 100 scale (0 no effect, 100 complete control), read-out: Plant response rating, Foxtail, Giant) | pest or weed control at 31 g/ha ([14]; 31 g ai/ha, 0 to 100 scale where 0 is no effect and 100 is complete control, read-out: Ryegrass, Italian plant response rating) | pest or weed control at 125 g/ha ([14]; 125 g ai/ha, visual injury rating after approximately 10 d, read-out: Ryegrass, Italian plant response rating (0 to 100 scale, 0 is no effect, 100 is complete control)) | pest or weed control at 31 g/ha ([15]; 31 g ai/ha, 0 to 100 scale where 0 is no effect and 100 is complete control, read-out: Pigweed plant response rating) | pest or weed control at 125 g/ha ([15]; 125 g ai/ha, visual injury rating after approximately 10 d, read-out: Pigweed plant response rating (0 to 100 scale, 0 is no effect, 100 is complete control)) | pest or weed control at 125 g/ha ([16]; 125 g ai/ha, visual injury rating after approximately 10 d, read-out: Barnyardgrass plant response rating (0 to 100 scale, 0 is no effect, 100 is complete control)) | pest or weed control at 31 g/ha ([16]; 31 g ai/ha, 0 to 100 scale (0 no effect, 100 complete control), read-out: Plant response rating, Barnyardgrass) | pest or weed control at 31 g/ha (Kochia (Kochia scoparia) [17]; 31 g ai/ha, 0 to 100 scale where 0 is no effect and 100 is complete control, read-out: Kochia plant response rating) | pest or weed control at 125 g/ha (Kochia (Kochia scoparia) [17]; 125 g ai/ha, visual injury rating after approximately 10 d, read-out: Kochia plant response rating (0 to 100 scale, 0 is no effect, 100 is complete control)) | pest or weed control at 31 g/ha ([18]; 31 g ai/ha, 0 to 100 scale where 0 is no effect and 100 is complete control, read-out: Ragweed plant response rating) | pest or weed control at 125 g/ha ([18]; 125 g ai/ha, visual injury rating after approximately 10 d, read-out: Ragweed plant response rating (0 to 100 scale, 0 is no effect, 100 is complete control))
